In patent US9796711B2, “Substituted pyrazolo[3,4-b]pyridin-6-carboxylic acids and method of use” (AbbVie S.àr.l., priority 2015, dated 2017):
Where two headings read alike, the source gives them in different places.

Molecular target: T1, ΔF508-CFTR (Homo sapiens, UniProt P13569, DEL508-508)
T1 construct: host or cells: CFBE41o-, doxycycline-inducible
Assay: CFTR cell surface levels using HRP-tagged ΔF508-CFTR expressing CFBE cells, intrinsic corrector capacity
Assay type: cell-based
Settings: 20 hours at 33° C.; for EC50: read-out: EC50
Text: Measuring CFTR Cell Surface Levels Using HRP-Tagged AF508-CFTR Expressing CFBE Cells
The HRP-tagged AF508-CFTR cell assay measures the expression of CFTR-ΔF508 at the plasma membrane. CFTR-ΔF508 has a folding defect leading to absence of protein at the plasma membrane. This assay is used to evaluate the capacity of compounds to increase the expression of CFTR-ΔF508 at the plasma membrane. The CFTR-ΔF508 is tagged with HRP (horse radish peroxidase enzyme) within the ECL4 (Extracellular loop 4) of CFTR (Phuan, P.-W. et al. Synergy-based small-molecule screen using a human lung epithelial cell line yields AF508-CFTR correctors that augment VX-809 maximal efficacy. Mol. Pharmacol. 86, 42-51 (2014)). When HRP-tagged AF508-CFTR is present at the plasma membrane, the HRP enzyme activity can be measured. The amount of CFTR-ΔF508 that can be rescued to the plasma membrane is correlated with the amount of functional enzyme that can be measured.
There are several ways to measure the capacity of compounds to rescue CFTR-ΔF508 to the plasma membrane; either compounds are evaluated on their own and the impact on plasma membrane levels is measured or compounds are evaluated in combination with a co-corrector, i.e. a compound that rescues CFTR-ΔF508 to the plasma membrane but rescue can be enhanced by addition of compounds due to a complementary mode of action.
Activity of Compounds for their Intrinsic Corrector Capacity:
For this purpose doxycycline-inducible AF508-CFTR-HRP expressing CFBE4lo-cells (obtained from Gergely Lukacs, McGill University) were maintained in MEM (Gibco; 31095) supplemented with 10% fetal bovine serum (Hyclone; SV30160.03) under puromycin (3 μg/mL) and G418 selection (0.2 mg/mL). For compound testing, cells were seeded at 4000 cells/well in white 384-well plates (Greiner; 781080) in 50 μL medium containing 0.5 μg/mL doxycycline and incubated for 68 hours at 37° C., 5% CO2. On day four, 10 μL test compounds diluted in PBS were added to the plates at a final DMSO concentration of 0.1%. All compound plates contained negative controls (DMSO) and positive controls (3 μM corrector, 3-[(2R,4R)-4-({[1-(2,2-difluoro-1,3-benzodioxol-5-yl)cyclopropyl]carbonyl}amino)-7-methoxy-3,4-dihydro-2H-chromen-2-yl]benzoic acid). Cell plates were incubated at 33° C., 5% CO2 for 20 hours. On day five, the cells were washed five times with phosphate-buffered saline, and HRP activity was assayed by the addition of 50 μL/well of HRP substrate (SuperSignal™ West Pico Chemiluminescent Substrate, Thermo Scientific; 34080). After incubation for 15 minutes in the dark, chemiluminescence was measured using a plate reader (EnVision®, Perkin Elmer). Raw data were normalized to percentage activity values using the equation: 100×(Sample−Negative control)/(Positive control−Negative Control).

[1] = HRP-tagged ΔF508-CFTR CFBE41o- cells, compounds alone (intrinsic corrector capacity), positive control 3 μM corrector
[2] = HRP-tagged ΔF508-CFTR CFBE41o- cells, compounds alone (intrinsic corrector capacity)
[3] = HRP-tagged ΔF508-CFTR CFBE cells, compound alone (intrinsic corrector capacity)

T1 sequence (P13569 with tags, fused parts or gaps DEL508-508): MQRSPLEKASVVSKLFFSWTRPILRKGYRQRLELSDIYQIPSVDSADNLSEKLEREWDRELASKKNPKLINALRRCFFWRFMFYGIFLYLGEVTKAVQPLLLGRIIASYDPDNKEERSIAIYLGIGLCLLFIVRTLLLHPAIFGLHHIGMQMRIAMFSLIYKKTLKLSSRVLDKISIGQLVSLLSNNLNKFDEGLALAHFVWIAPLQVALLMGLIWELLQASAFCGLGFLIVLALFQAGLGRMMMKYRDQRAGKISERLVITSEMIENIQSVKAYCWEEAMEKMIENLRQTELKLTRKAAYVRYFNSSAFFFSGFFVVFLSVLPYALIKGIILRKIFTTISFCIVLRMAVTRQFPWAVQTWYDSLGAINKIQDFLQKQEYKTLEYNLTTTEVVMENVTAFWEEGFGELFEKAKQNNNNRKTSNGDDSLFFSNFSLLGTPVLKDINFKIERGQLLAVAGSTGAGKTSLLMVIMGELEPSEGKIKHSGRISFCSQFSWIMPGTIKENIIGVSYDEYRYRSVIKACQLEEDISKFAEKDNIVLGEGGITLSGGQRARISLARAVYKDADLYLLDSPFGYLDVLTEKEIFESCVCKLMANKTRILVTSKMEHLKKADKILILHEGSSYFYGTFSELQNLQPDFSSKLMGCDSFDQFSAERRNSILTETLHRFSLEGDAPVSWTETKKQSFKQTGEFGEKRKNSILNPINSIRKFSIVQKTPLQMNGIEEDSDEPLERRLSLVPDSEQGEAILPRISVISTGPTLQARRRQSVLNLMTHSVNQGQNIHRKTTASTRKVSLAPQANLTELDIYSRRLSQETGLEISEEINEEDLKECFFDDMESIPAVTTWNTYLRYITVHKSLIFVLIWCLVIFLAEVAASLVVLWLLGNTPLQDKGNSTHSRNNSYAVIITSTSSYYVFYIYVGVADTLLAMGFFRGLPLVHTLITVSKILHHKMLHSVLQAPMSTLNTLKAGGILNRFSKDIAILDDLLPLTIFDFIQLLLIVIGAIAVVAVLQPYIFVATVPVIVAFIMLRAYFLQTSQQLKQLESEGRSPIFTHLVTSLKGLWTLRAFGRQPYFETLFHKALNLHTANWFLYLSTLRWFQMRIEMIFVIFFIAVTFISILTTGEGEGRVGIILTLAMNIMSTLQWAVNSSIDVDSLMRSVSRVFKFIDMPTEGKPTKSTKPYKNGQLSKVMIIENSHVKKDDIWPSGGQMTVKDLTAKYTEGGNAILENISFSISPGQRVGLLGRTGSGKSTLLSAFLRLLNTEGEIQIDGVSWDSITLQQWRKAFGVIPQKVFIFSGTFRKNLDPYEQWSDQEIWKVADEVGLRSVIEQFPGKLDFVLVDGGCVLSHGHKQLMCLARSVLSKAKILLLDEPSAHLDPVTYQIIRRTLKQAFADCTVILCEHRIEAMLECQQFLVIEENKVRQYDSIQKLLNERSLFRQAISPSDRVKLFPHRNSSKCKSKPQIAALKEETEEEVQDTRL

| Compound | % Activation [1] [%] | EC50 [2] [µM] | % Activation [3] [%] | EC50 [3] [µM] |
| --- | --- | --- | --- | --- |
| CNC(=O)c1nn(-c2ccccc2)c2nc(C(=O)O)cc(-c3ccc(N4CCOCC4)cc3)c12 [compound 55, 3-(methylcarbamoyl)-4-[4-(morpholin-4-yl)phenyl]-1-phenyl-1H-pyrazolo[3,4-b]pyridine-6-carboxylic acid] | 0.088 | > 10 |  |  |
| Cc1cc(C)cc(-n2nc(C)c3c(-c4ccc(N5CCOCC5)cc4)cc(C(=O)O)nc32)c1 [compound 30, 1-(3,5-dimethylphenyl)-3-methyl-4-[4-(morpholin-4-yl)phenyl]-1H-pyrazolo[3,4-b]pyridine-6-carboxylic acid] | 119.1 | 1.21 |  |  |
| COc1cc(N2CCOCC2)ccc1-c1cc(C(=O)O)nc2c1c(C)nn2-c1ccccc1 [compound 33, 4-[2-methoxy-4-(morpholin-4-yl)phenyl]-3-methyl-1-phenyl-1H-pyrazolo[3,4-b]pyridine-6-carboxylic acid] | 90.265 | 1.53 |  |  |
| Cc1nn(C2CCN(C)CC2)c2nc(C(=O)O)cc(-c3ccc(N4CCOCC4)cc3)c12 [compound 39, 3-methyl-1-(1-methylpiperidin-4-yl)-4-[4-(morpholin-4-yl)phenyl]-1H-pyrazolo[3,4-b]pyridine-6-carboxylic acid] | −2.469 | > 10 |  |  |
| Cc1nn(-c2cccc(S(N)(=O)=O)c2)c2nc(C(=O)O)cc(-c3ccc(N4CCOCC4)cc3)c12 [compound 45, 3-methyl-4-[4-(morpholin-4-yl)phenyl]-1-(3-sulfamoylphenyl)-1H-pyrazolo[3,4-b]pyridine-6-carboxylic acid] | 5.851 | > 10 |  |  |
| Cc1nn(-c2ccccc2)c2nc(C(=O)O)cc(-c3ccc(N4CCS(=O)(=O)CC4)cc3)c12 [compound 14, 4-[4-(1,1-dioxo-1λ^6,4-thiazinan-4-yl)phenyl]-3-methyl-1-phenyl-1H-pyrazolo[3,4-b]pyridine-6-carboxylic acid] | 58.56 | 3.34 |  |  |
| Cc1nn(-c2ccccc2)c2nc(C(=O)O)cc(-c3ccc(N4CCC(F)C4)cc3)c12 (stereo not drawn) [compound 28, 4-[4-(3-fluoropyrrolidin-1-yl)phenyl]-3-methyl-1-phenyl-1H-pyrazolo[3,4-b]pyridine-6-carboxylic acid] | 129.5 | 1.18 |  |  |
| CC(C)COC(=O)N1CCN(c2cc(C(=O)O)nc3c2c(C2CCC2)nn3-c2ccc(F)cc2)CC1 [compound 930, 3-cyclobutyl-1-(4-fluorophenyl)-4-{4-[(2-methylpropoxy)carbonyl]piperazin-1-yl}-1H-pyrazolo[3,4-b]pyridine-6-carboxylic acid] |  |  | 434.3 | 0.24 |
| COc1cc(-n2nc(C)c3c(-c4ccc(N5CCOCC5)cc4)cc(C(=O)O)nc32)ccn1 [compound 51, 1-(2-methoxypyridin-4-yl)-3-methyl-4-[4-(morpholin-4-yl)phenyl]-1H-pyrazolo[3,4-b]pyridine-6-carboxylic acid] | 41.22 | 1.18 |  |  |
| Cc1nn(-c2cccc(Br)c2)c2nc(C(=O)O)cc(-c3ccc(N4CCOCC4)cc3)c12 [compound 18, 1-(3-bromophenyl)-3-methyl-4-[4-(morpholin-4-yl)phenyl]-1H-pyrazolo[3,4-b]pyridine-6-carboxylic acid] | 126.8 | 0.783 |  |  |
| Cc1nn(-c2ccccc2)c2nc(C(=O)O)cc(-c3ccc(N4CCN(S(C)(=O)=O)CC4)cc3)c12 [compound 53, 4-{4-[4-(methanesulfonyl)piperazin-1-yl]phenyl}-3-methyl-1-phenyl-1H-pyrazolo[3,4-b]pyridine-6-carboxylic acid] | 72.97 | 3.34 |  |  |
| Cc1nn(-c2cc(Cl)cc(Cl)c2)c2nc(C(=O)O)cc(-c3ccc(N4CCOCC4)cc3)c12 [compound 44, 1-(3,5-dichlorophenyl)-3-methyl-4-[4-(morpholin-4-yl)phenyl]-1H-pyrazolo[3,4-b]pyridine-6-carboxylic acid] | 117.2 | 2.2 |  |  |
| Cc1nn(-c2cnn(C)c2)c2nc(C(=O)O)cc(-c3ccc(N4CCOCC4)cc3)c12 [compound 46, 3-methyl-1-(1-methyl-1H-pyrazol-4-yl)-4-[4-(morpholin-4-yl)phenyl]-1H-pyrazolo[3,4-b]pyridine-6-carboxylic acid] | 15.23 | > 10 |  |  |
| COc1ccc(-c2cc(C(=O)O)nc3c2c(C)nn3CCC#N)cc1 [compound 4, 1-(2-cyanoethyl)-4-(4-methoxyphenyl)-3-methyl-1H-pyrazolo[3,4-b]pyridine-6-carboxylic acid] | 3.339 | > 10 |  |  |
| COc1cc(F)cc(-n2nc(C)c3c(-c4ccc(N5CCOCC5)cc4)cc(C(=O)O)nc32)c1 [compound 52, 1-(3-fluoro-5-methoxyphenyl)-3-methyl-4-[4-(morpholin-4-yl)phenyl]-1H-pyrazolo[3,4-b]pyridine-6-carboxylic acid] | 87.35 | 2.68 |  |  |
| CC(C)c1nn(-c2ccccc2)c2nc(C(=O)O)cc(-c3ccc(N4CCCC4)cc3)c12 [compound 24, 1-phenyl-3-(propan-2-yl)-4-[4-(pyrrolidin-1-yl)phenyl]-1H-pyrazolo[3,4-b]pyridine-6-carboxylic acid] | 134.1 | 1.83 |  |  |
| Cc1nn(-c2ccccc2)c2nc(C(=O)O)cc(-c3ccc(N4CCN(C)CC4)cc3)c12 [compound 9, 3-methyl-4-[4-(4-methylpiperazin-1-yl)phenyl]-1-phenyl-1H-pyrazolo[3,4-b]pyridine-6-carboxylic acid] | 31.76 | 3.34 |  |  |
| Cc1nn(-c2cccc(OC(F)(F)F)c2)c2nc(C(=O)O)cc(-c3ccc(N4CCOCC4)cc3)c12 [compound 35, 3-methyl-4-[4-(morpholin-4-yl)phenyl]-1-[3-(trifluoromethoxy)phenyl]-1H-pyrazolo[3,4-b]pyridine-6-carboxylic acid] | 110.15 | 0.737 |  |  |
| CC(C)c1nn(-c2cccc(C#N)c2)c2nc(C(=O)O)cc(-c3ccc(N4CCOCC4)cc3)c12 [compound 49, 1-(3-cyanophenyl)-4-[4-(morpholin-4-yl)phenyl]-3-(propan-2-yl)-1H-pyrazolo[3,4-b]pyridine-6-carboxylic acid] | 107 | 1.11 |  |  |
| Cc1nn(-c2cc(C(F)(F)F)[nH]n2)c2nc(C(=O)O)cc(-c3ccc(N4CCOCC4)cc3)c12 [compound 7, 3-methyl-4-[4-(morpholin-4-yl)phenyl]-1-[5-(trifluoromethyl)-1H-pyrazol-3-yl]-1H-pyrazolo[3,4-b]pyridine-6-carboxylic acid] | 5.355 | > 10 |  |  |
| COc1ccc(-c2cc(C(=O)O)nc3c2c(C)nn3C2CCCC2)cc1 [compound 3, 1-cyclopentyl-4-(4-methoxyphenyl)-3-methyl-1H-pyrazolo[3,4-b]pyridine-6-carboxylic acid] | 46.83 | 3.34 |  |  |
| COc1cccc(-n2nc(C)c3c(-c4ccc(N5CCOCC5)cc4)cc(C(=O)O)nc32)c1 [compound 21, 1-(3-methoxyphenyl)-3-methyl-4-[4-(morpholin-4-yl)phenyl]-1H-pyrazolo[3,4-b]pyridine-6-carboxylic acid] | 103.72 | 1.06 |  |  |
| CC(=O)N1CCN(c2ccc(-c3cc(C(=O)O)nc4c3c(C)nn4-c3ccccc3)cc2)CC1 [compound 29, 4-[4-(4-acetylpiperazin-1-yl)phenyl]-3-methyl-1-phenyl-1H-pyrazolo[3,4-b]pyridine-6-carboxylic acid] | 146.1 | 3.11 |  |  |
| CCOC(=O)c1nn(-c2ccccc2)c2nc(C(=O)O)cc(-c3ccc(N4CCOCC4)cc3)c12 [compound 16, 3-(ethoxycarbonyl)-4-[4-(morpholin-4-yl)phenyl]-1-phenyl-1H-pyrazolo[3,4-b]pyridine-6-carboxylic acid] | 92.93 | 3.34 |  |  |
